Measurements: the supplement of paper PMC10307832

Key:
Assay in all cases: relative viability (nuclei count vs DMSO), 5 days (fraction); higher = more cells survive
Ponatinib + Trametinib = compound: Cc1ccc(C(=O)Nc2ccc(CN3CCN(C)CC3)c(C(F)(F)F)c2)cc1C#Cc1cnc2cccnn12 [Ponatinib] + CC(=O)Nc1cccc(-n2c(=O)n(C3CC3)c(=O)c3c(Nc4ccc(I)cc4F)n(C)c(=O)c(C)c32)c1 [Trametinib] (partner 0.02 µM)
Procedure, shortened: (§1)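 A single step with final 0.05% Triton X-100, 1% formaldehyde and 1 ug/ml Hoechst fixed the cells and stained nuclei 5 days after treatment. Lung cancer cell lines in 1536-well plates had been treated by pin tool the day after seeding with one drug alone or a fixed anchor-drug dose plus five library-drug doses (not always all listed) in √10 steps, and nuclei were counted on 4× images. Relative viability is the ratio of nuclei in treated wells to nuclei in vehicle wells, taken as the median of duplicate plates.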

Ponatinib + Luminespib = compound: Cc1ccc(C(=O)Nc2ccc(CN3CCN(C)CC3)c(C(F)(F)F)c2)cc1C#Cc1cnc2cccnn12 [Ponatinib] + CCNC(=O)c1noc(-c2cc(C(C)C)c(O)cc2O)c1-c1ccc(CN2CCOCC2)cc1 [Luminespib] (partner 0.01 µM)
Procedure, shortened: as §1

Pazopanib + Pictilisib = compound: Cc1ccc(Nc2nccc(N(C)c3ccc4c(C)n(C)nc4c3)n2)cc1S(N)(=O)=O [Pazopanib] + CS(=O)(=O)N1CCN(Cc2cc3nc(-c4cccc5[nH]ncc45)nc(N4CCOCC4)c3s2)CC1 [Pictilisib] (partner 1 µM)
Procedure, shortened: as §1

Pazopanib + Olaparib = compound: Cc1ccc(Nc2nccc(N(C)c3ccc4c(C)n(C)nc4c3)n2)cc1S(N)(=O)=O [Pazopanib] + O=C(c1cc(Cc2n[nH]c(=O)c3ccccc23)ccc1F)N1CCN(C(=O)C2CC2)CC1 [Olaparib] (partner 8 µM)
Procedure, shortened: as §1

Cell Line: SK-LU-1
- relative viability (Ponatinib + Trametinib; first compound 0.002 µM): 0.469
- relative viability (Ponatinib + Trametinib; first compound 0.006325 µM): 0.554
- relative viability (Ponatinib + Trametinib; first compound 0.06325 µM): 0.393
- relative viability (Ponatinib + Trametinib; first compound 0.2 µM): 0.347
- relative viability (Ponatinib + Luminespib; first compound 0.002 µM): 0.196
- relative viability (Ponatinib + Luminespib; first compound 0.006325 µM): 0.213
- relative viability (Ponatinib + Luminespib; first compound 0.06325 µM): 0.2
- relative viability (Ponatinib + Luminespib; first compound 0.2 µM): 0.175
- relative viability (Pazopanib + Pictilisib; first compound 0.01 µM): 0.434
- relative viability (Pazopanib + Pictilisib; first compound 0.03162 µM): 0.636
- relative viability (Pazopanib + Pictilisib; first compound 0.1 µM): 0.543
- relative viability (Pazopanib + Pictilisib; first compound 0.3162 µM): 0.633
- relative viability (Pazopanib + Pictilisib; first compound 1 µM): 0.589
- relative viability (Pazopanib + Olaparib; first compound 0.01 µM): 0.392
- relative viability (Pazopanib + Olaparib; first compound 0.03162 µM): 0.483
- relative viability (Pazopanib + Olaparib; first compound 0.1 µM): 0.441
- relative viability (Pazopanib + Olaparib; first compound 0.3162 µM): 0.525
- relative viability (Pazopanib + Olaparib; first compound 1 µM): 0.55

Cell Line: SK-MES-1
- relative viability (Ponatinib + Trametinib; first compound 0.002 µM): 0.629
- relative viability (Ponatinib + Trametinib; first compound 0.006325 µM): 0.693
- relative viability (Ponatinib + Trametinib; first compound 0.06325 µM): 0.511
- relative viability (Ponatinib + Trametinib; first compound 0.2 µM): 0.454
- relative viability (Ponatinib + Luminespib; first compound 0.002 µM): 0.761
- relative viability (Ponatinib + Luminespib; first compound 0.006325 µM): 0.89
- relative viability (Ponatinib + Luminespib; first compound 0.06325 µM): 1.01
- relative viability (Ponatinib + Luminespib; first compound 0.2 µM): 0.745
- relative viability (Pazopanib + Pictilisib; first compound 0.01 µM): 0.39
- relative viability (Pazopanib + Pictilisib; first compound 0.03162 µM): 0.365
- relative viability (Pazopanib + Pictilisib; first compound 0.1 µM): 0.391
- relative viability (Pazopanib + Pictilisib; first compound 0.3162 µM): 0.379
- relative viability (Pazopanib + Pictilisib; first compound 1 µM): 0.335
- relative viability (Pazopanib + Olaparib; first compound 0.01 µM): 0.659
- relative viability (Pazopanib + Olaparib; first compound 0.03162 µM): 0.684
- relative viability (Pazopanib + Olaparib; first compound 0.1 µM): 0.76
- relative viability (Pazopanib + Olaparib; first compound 0.3162 µM): 0.75
- relative viability (Pazopanib + Olaparib; first compound 1 µM): 0.685

Cell Line: SW 1573
- relative viability (Ponatinib + Trametinib; first compound 0.002 µM): 0.6
- relative viability (Ponatinib + Trametinib; first compound 0.006325 µM): 0.595
- relative viability (Ponatinib + Trametinib; first compound 0.06325 µM): 0.591
- relative viability (Ponatinib + Trametinib; first compound 0.2 µM): 0.577
- relative viability (Ponatinib + Luminespib; first compound 0.002 µM): 0.266
- relative viability (Ponatinib + Luminespib; first compound 0.006325 µM): 0.321
- relative viability (Ponatinib + Luminespib; first compound 0.06325 µM): 0.25
- relative viability (Ponatinib + Luminespib; first compound 0.2 µM): 0.259
- relative viability (Pazopanib + Pictilisib; first compound 0.01 µM): 0.412
- relative viability (Pazopanib + Pictilisib; first compound 0.03162 µM): 0.531
- relative viability (Pazopanib + Pictilisib; first compound 0.1 µM): 0.514
- relative viability (Pazopanib + Pictilisib; first compound 0.3162 µM): 0.632
- relative viability (Pazopanib + Pictilisib; first compound 1 µM): 0.537
- relative viability (Pazopanib + Olaparib; first compound 0.01 µM): 0.471
- relative viability (Pazopanib + Olaparib; first compound 0.03162 µM): 0.511
- relative viability (Pazopanib + Olaparib; first compound 0.1 µM): 0.52
- relative viability (Pazopanib + Olaparib; first compound 0.3162 µM): 0.531
- relative viability (Pazopanib + Olaparib; first compound 1 µM): 0.517
